Assay results published in patent US20120065614A1 (UNIVERSITY OF NORTH TEXAS, priority 2010, published 2012).
Like-named read-outs stand apart in the source and are kept apart here.

Columns and labels:
[1] = solution, literature results, fitting error not given; cited from earlier work
[2] = Time-resolved phosphorescence lifetime; format: physicochemical
Experimental: (§1) Photoluminescence characterization: All photoluminescence studies were carried with the PTI spectrofluorometer described below. For titrations, 2.5-mL aliquots were placed in the quartz cuvette and 0.1 mL of gel was added at every titration point with magnetic stirring. Titration data were plotted as I/Io vs. volume of gel added (where I=intensity of sample after addition of gel and 1o=intensity of pure aqueous gold phosphor solution). Lifetime data were analyzed using a xenon flash lamp or N2 laser systems for both the sample and a scatterer solution used to generate the instrument response function (IRF) used for deconvolution.

[3] = Steady-state photoluminescence spectra (emission/excitation maxima); format: physicochemical
Experimental: as §1
Spectroscopic equipment: Steady-state luminescence spectra were acquired with a PTI QuantaMaster Model QM-4 scanning spectrofluorometer equipped with a 75-watt xenon lamp. The UVN is absorption spectra were measured at 1-nm resolution on either a diode array spectrometer (Hewlett-Packard, model 8543) or a Perkin-Elmer Lambda-900 double-beam UVN is/NIR absorption spectrophotometer.

[4] = cited from earlier work; for emission band maximum: literature
[5] = cited from earlier work

O=S(=O)([O-])c1cccc([PH](c2cccc(S(=O)(=O)[O-])c2)(c2cccc(S(=O)(=O)[O-])c2)[Au]([PH](c2cccc(S(=O)(=O)[O-])c2)(c2cccc(S(=O)(=O)[O-])c2)c2cccc(S(=O)(=O)[O-])c2)[PH](c2cccc(S(=O)(=O)[O-])c2)(c2cccc(S(=O)(=O)[O-])c2)c2cccc(S(=O)(=O)[O-])c2)c1 [Na8[Au(TPPTS)3], tris[tris(3,3′,3″-trisulfonatophenyl)phosphine]aurate(I)]
τ, soln. (RT) [1]: 1.9 μs (fitting error not given)
phosphorescence lifetime ([2]; after addition of PNIPAM hydrogels to the aqueous solution): 2.6 μs
phosphorescence lifetime ([2]; aqueous solution before addition of PNIPAM hydrogels): 1.4 μs
τ, soln. (RT) ([2]; aqueous solution, RT): 2.04 ± 0.02 μs (FIGS.
excitation maximum ([3]; aqueous solution of 0.001M): 292 nm
emission maximum ([3]; solid state): 500 nm
excitation maximum ([3]; solid state): 356 nm
PL, soln. (RT), emission, corrected ([3]; solution, RT, Corr.): nm exc.; 525 nm em.
PL, soln. (RT), excitation, corrected ([3]; solution, RT, Corr.): 285 nm
PL, soln. (RT), emission, uncorrected ([3]; solution, RT, Uncorr.): 510 nm
PL, soln. (RT), excitation, uncorrected ([3]; solution, RT, Uncorr.): Uncorr.: 296 nm exc.;
emission band maximum ([4]; solid state at 77° K): 486 nm
emission band maximum ([4]; solid state at room temperature): 494 nm
PL, soln. (RT), emission ([4]; solution, RT, literature results (broad)): 513 nm
PL, soln. (RT), excitation ([4]; solution, RT, literature results): 293 nm
water solubility [5]: highly water soluble
